The text below walks through data of US8088936B2, “Leukotriene B4 inhibitors” (Hoffman-La Roche Inc., priority 2009, dated 2012).

pIC50: −log10 of the molar value.

The test system of the assay is Human leukemia HL-60 cells endogenously expressing BLT1 and BLT2 receptors. Nature of the assay: Ca2+ flux assay for LTB4 antagonist assay (HL-60 FLIPR). The format is cell-based. Conditions: retinoic acid induced HL-60 cells, inhibition of LTB4-induced Ca2+ flux, 30 min preincubation; read-out: LTB4 antagonism (HL-60 FLIPR). For orientation: A change in cytosolic calcium serves as a functional read-out for many receptors and channels.
Turning to `CCOc1cc(OCCCCCCc2cccc(OCCCC(=O)O)c2CCC(=O)O)cc(-c2cncnc2)c1` [Example 53, 4-[2-(2-Carboxy-ethyl)-3-[6-(3-ethoxy-5-pyrimidin-5-yl-phenoxy)-hexyl]-phenoxy]-butyric acid], the pIC50 was 7.10.

Take `Cc1ccc(-c2cc(CN(C)C)cc(OCCCCCCc3cccc(OCCCC(=O)O)c3CCC(=O)O)c2)cc1F` [Example 35, 4-{2-(2-Carboxy-ethyl)-3-[6-(5-dimethylaminomethyl-3′-fluoro-4′-methyl-biphenyl-3-yloxy)-hexyl]-phenoxy}-butyric acid]: the pIC50 was 9.80.

For `COCc1cc(OCCCCCCc2cccc(OCCCC(=O)O)c2CCC(=O)O)cc(-c2cc(F)cc(F)c2)c1` [Example 16, 4-{2-(2-Carboxy-ethyl)-3-[6-(3′,5′-difluoro-5-methoxymethyl-biphenyl-3-yloxy)-hexyl]-phenoxy}-butyric acid], the pIC50 is 7.83.

Turning to `CN(C)Cc1cc(OCCCCCCc2cccc(OCCCC(=O)O)c2CCC(=O)O)cc(-c2ccc3c(c2)OCO3)c1` [Example 30, 4-[3-[6-(3-Benzo[1,3]dioxol-5-yl-5-dimethylaminomethyl-phenoxy)-hexyl]-2-(2-carboxy-ethyl)-phenoxy]-butyric acid], the pIC50 is 10.00.

As for `N#CCc1cc(OCCCCCCc2cccc(OCCCC(=O)O)c2CCC(=O)O)cc(-c2ccsc2)c1` [Example 41, 4-{2-(2-Carboxy-ethyl)-3-[6-(3-cyanomethyl-5-thiophen-3-yl-phenoxy)-hexyl]-phenoxy}-butyric acid], the pIC50 is 7.82.

`COCc1cc(OCCCCCCc2cccc(OCCCC(=O)O)c2CCC(=O)O)cc(-c2ccccc2F)c1` [Example 15, 4-{2-(2-Carboxy-ethyl)-3-[6-(2′-fluoro-5-methoxymethyl-biphenyl-3-yloxy)-hexyl]-phenoxy}-butyric acid]: the pIC50 was 8.22.
